Counter-ions that a name gives are not always drawn.

Drawing on patent US11780830B2, “Triazolone derivatives or salts thereof and pharmaceutical compositions comprising the same” (YUHAN CORPORATION, priority 2018, dated 2023), this text covers IC50 for ten compounds.

What all share (type): biochemical
One assay deals with T1, recombinant human VAP-1 (Homo sapiens, UniProt Q16853).
T1 construct: purchased R&D systems
T1 sequence (Q16853 1-763): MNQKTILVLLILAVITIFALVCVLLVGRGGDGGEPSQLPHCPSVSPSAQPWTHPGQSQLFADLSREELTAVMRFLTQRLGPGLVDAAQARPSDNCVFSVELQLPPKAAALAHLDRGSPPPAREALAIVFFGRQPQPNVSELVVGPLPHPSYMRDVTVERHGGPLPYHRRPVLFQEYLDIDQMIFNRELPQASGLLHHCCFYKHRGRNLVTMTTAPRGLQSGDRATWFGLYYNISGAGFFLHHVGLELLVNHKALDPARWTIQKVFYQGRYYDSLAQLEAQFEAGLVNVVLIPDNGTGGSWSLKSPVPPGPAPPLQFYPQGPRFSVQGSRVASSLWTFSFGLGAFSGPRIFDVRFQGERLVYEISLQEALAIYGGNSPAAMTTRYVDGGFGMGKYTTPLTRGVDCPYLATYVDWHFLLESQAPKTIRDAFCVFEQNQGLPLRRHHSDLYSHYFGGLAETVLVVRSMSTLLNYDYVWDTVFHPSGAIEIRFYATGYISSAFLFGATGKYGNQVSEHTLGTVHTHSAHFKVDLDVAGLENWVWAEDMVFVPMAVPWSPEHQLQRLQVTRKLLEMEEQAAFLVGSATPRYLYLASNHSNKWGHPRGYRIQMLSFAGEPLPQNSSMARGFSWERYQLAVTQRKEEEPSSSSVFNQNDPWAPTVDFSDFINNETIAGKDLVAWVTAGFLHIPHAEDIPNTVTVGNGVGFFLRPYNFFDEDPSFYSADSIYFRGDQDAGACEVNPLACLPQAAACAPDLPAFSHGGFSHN
Briefly: Activity on recombinant human VAP-1, HRP-coupled Amplex Red hydrogen peroxide assay. The conditions noted are these: substrate 1 mM benzylamine; compound incubated with enzyme at 37° C. for 30 minutes; pH 7.4; read-out: Inhibitory Activity (IC50, nM) human VAP-1. The method in brief:
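H2O2 generation from 1 mM benzylamine was coupled via 1 U/mL HRP to 200 uM Amplex Red; inhibitors, serially diluted 1:3 over 8 points with under 1% final DMSO, had been preincubated 30 min at 37 °C. IC50 from percentage drop in rate.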

In assay [1] the target is T2, recombinant human MAO-A (monoamine oxidase-A) (Homo sapiens, UniProt P21397).
T2 construct: purchased Sigma-Aldrich
T2 sequence (P21397 1-527): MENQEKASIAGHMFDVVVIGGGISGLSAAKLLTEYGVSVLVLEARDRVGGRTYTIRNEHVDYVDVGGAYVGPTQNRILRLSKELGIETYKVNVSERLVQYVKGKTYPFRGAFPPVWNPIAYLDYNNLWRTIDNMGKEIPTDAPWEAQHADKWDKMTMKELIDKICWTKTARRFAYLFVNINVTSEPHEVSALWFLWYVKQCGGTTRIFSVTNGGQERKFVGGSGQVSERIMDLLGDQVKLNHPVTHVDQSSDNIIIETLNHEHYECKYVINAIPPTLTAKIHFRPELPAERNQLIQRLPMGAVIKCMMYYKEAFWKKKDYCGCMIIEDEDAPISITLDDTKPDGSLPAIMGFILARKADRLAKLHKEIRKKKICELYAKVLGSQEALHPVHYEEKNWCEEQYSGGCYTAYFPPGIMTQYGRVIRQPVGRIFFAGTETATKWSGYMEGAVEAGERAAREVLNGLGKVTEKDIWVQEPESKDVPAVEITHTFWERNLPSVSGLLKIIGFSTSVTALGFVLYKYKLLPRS
Briefly: Activity on recombinant human MAO-A, method similar to the VAP-1 assay. Particulars: substrate 0.5 mM tyramine; read-out: Inhibitory Activity (IC50, nM) MAO-A. The method in brief:
(§1)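 First, serially diluted compounds were incubated with recombinant enzyme in 50 mM sodium phosphate, pH 7.4, for 30 min at 37° C. Next, Amplex Red (200 uM), HRP (1 U/mL) and tyramine (0.5 mM, MAO-A) or benzylamine (1 mM, MAO-B) were added. Then fluorescence was monitored over 1-2 h and IC50 fitted.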

Assay [2] concerns the target T3, recombinant human MAO-B (monoamine oxidase-B) (Homo sapiens, UniProt P27338).
T3 construct: purchased Sigma-Aldrich
T3 sequence (P27338 1-520): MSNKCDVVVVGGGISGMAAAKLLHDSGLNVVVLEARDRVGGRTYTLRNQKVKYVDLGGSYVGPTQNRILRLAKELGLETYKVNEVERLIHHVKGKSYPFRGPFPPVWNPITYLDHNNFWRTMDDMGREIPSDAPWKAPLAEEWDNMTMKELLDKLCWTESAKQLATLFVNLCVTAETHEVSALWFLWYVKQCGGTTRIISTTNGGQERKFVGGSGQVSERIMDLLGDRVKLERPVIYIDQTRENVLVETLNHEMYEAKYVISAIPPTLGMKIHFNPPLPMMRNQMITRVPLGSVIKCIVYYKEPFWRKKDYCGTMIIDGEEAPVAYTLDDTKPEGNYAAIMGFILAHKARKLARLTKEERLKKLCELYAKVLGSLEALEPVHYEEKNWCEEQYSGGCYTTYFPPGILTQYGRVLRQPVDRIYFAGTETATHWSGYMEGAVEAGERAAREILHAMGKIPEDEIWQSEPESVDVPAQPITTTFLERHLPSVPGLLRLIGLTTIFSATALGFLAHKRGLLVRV
The assay can be described thus: Activity on recombinant human MAO-B, method similar to the VAP-1 assay. Particulars: substrate 1 mM benzylamine; read-out: Inhibitory Activity (IC50, nM) MAO-B. The method in brief: as §1

Assay [3] addresses T4, recombinant human DAO (diamine oxidase) (Homo sapiens, UniProt P19801).
T4 construct: purchased R&D systems
T4 sequence (P19801 20-751): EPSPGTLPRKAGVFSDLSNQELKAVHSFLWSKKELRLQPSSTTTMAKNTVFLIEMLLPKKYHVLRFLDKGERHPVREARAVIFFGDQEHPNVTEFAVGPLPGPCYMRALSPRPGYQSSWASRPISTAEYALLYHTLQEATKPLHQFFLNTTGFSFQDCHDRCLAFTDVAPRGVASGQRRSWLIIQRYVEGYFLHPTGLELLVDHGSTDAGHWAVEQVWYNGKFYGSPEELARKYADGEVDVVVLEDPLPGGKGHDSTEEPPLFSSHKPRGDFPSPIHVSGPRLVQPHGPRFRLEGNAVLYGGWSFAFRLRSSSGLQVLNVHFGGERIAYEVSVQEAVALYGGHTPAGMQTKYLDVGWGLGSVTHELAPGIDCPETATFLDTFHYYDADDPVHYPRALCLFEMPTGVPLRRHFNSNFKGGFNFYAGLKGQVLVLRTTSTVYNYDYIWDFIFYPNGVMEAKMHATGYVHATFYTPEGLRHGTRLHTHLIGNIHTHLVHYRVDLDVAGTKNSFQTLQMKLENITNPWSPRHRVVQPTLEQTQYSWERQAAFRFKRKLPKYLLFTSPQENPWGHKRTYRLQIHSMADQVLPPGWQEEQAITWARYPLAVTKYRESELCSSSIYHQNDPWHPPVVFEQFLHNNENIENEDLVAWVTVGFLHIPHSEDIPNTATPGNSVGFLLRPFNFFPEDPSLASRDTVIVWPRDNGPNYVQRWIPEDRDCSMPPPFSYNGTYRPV
The assay can be described thus: Activity on recombinant human DAO, method similar to the VAP-1 assay. The conditions noted are these: substrate 1 mM putrescine; read-out: Inhibitory Activity (IC50, nM) DAO. The method in brief:
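Inhibition of recombinant human diamine oxidase (DAO, R&D systems) was assessed by the same approach as the VAP-1 assay, using 1 mM putrescine as substrate. Hydrogen peroxide formed was detected through an HRP-coupled Amplex Red reaction yielding fluorescent resorufin, read at 544 nm excitation and 590 nm emission. IC50 values came from four-parameter logistic fitting in GraphPad Prism.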

Broadly, the IC50 is the concentration needed to halve the response being measured. Consider `NC/C(=C\F)Cn1ncn(Cc2ccc(-c3cnc(N4CCOCC4)nc3)s2)c1=O` [Example 57, 2-[(2E)-2-(aminomethyl)-3-fluoroprop-2-en-1-yl]-4-(5-[2-(morpholin-4-yl)pyrimidin-5-yl]thiophen-2-ylmethyl)-2,4-dihydro-3H-1,2,4-triazol-3-one hydrochloride], for which the IC50 on recombinant human VAP-1 amounted to 2.2 nM; in assay [1], 6600 nM; in assay [2] it was 1600 nM; in assay [3], 83 nM.

In the case of `CC1(C)Oc2cc(-c3ccc(Cn4cnn(C/C(=C/F)CN)c4=O)s3)ccc2NC1=O` [Example 87, 7-[5-[[1-[(E)-2-(aminomethyl)-3-fluoro-allyl]-5-oxo-1,2,4-triazol-4-yl]methyl]-2-thienyl]-2,2-dimethyl-4H-1,4-benzoxazin-3-one], the concentration for half-maximal inhibition (IC50) at recombinant human VAP-1 is 0.4 nM; in assay [1] it was more than 100000 nM; in assay [2] it was 2700 nM; in assay [3] it was 760 nM.

Turning to `NC/C(=C\F)Cn1ncn(Cc2ccc(-c3cnc4[nH]ccc4c3)s2)c1=O` [Example 65, 2-[(2E)-2-(aminomethyl)-3-fluoroprop-2-en-1-yl]-4-[5-(1H-pyrrolo[2,3-b]pyridin-5-yl)thiophen-2-yl]methyl-2,4-dihydro-3H-1,2,4-triazol-3-one hydrochloride], the IC50 at recombinant human VAP-1 was 0.7 nM; in assay [1] it was more than 100000 nM; in assay [2] it was 3400 nM; in assay [3], 1500 nM.

On to `NC/C(=C\F)Cn1ncn(Cc2ccc(-c3ccc4c(c3)CCC(=O)N4)s2)c1=O` [Example 75, 6-[5-(1-[(2E)-2-(aminomethyl)-3-fluoroprop-2-en-1-yl]-5-oxo-1,5-dihydro-4H-1,2,4-triazol-4-ylmethyl)thiophen-2-yl]-3,4-dihydroquinolin-2(1H)-one hydrochloride], for which the IC50 at recombinant human VAP-1 was 0.3 nM; in assay [1] it was more than 100000 nM; in assay [2] it was 2600 nM; in assay [3], 950 nM.

For the compound `NC/C(=C\F)Cn1ncn(Cc2ccc(-c3ccc(-c4nnc[nH]4)cc3)s2)c1=O` [Example 31, 2-[(2E)-2-(aminomethyl)-3-fluoroprop-2-en-1-yl]-4-(5-[4-(4H-1,2,4-triazol-3-yl)phenyl]thiophen-2-ylmethyl)-2,4-dihydro-3H-1,2,4-triazol-3-one], the IC50 at recombinant human VAP-1 is 0.67 nM; in assay [1], more than 100000 nM; in assay [2] it was 73 nM; in assay [3] it was 120 nM.

For `CCn1cc(-c2ccc(Cn3cnn(C/C(=C/F)CN)c3=O)s2)ccc1=O` [Example 194, 5-[5-({1-[(2E)-2-(aminomethyl)-3-fluoroprop-2-en-1-yl]-5-oxo-1,5-dihydro-4H-1,2,4-triazol-4-yl}methyl)thiophen-2-yl]-1-ethylpyridin-2(1H)-one], the IC50 on recombinant human VAP-1 is 1.6 nM; in assay [1], more than 100000 nM; in assay [2], 1500 nM; in assay [3] it was 1200 nM.

Regarding `NC/C(=C\F)Cn1ncn(Cc2ccc(-c3cccc4ncccc34)s2)c1=O` [Example 113, 2-[(2E)-2-(aminomethyl)-3-fluoroprop-2-en-1-yl]-4-[5-(quinolin-5-yl)thiophen-2-yl]methyl-2,4-dihydro-3H-1,2,4-triazol-3-one hydrochloride], the IC50 was 0.8 nM at recombinant human VAP-1, more than 100000 nM in assay [1], 160 nM in assay [2] and 340 nM in assay [3].

Take `CN1C(=O)COc2ncc(-c3ccc(Cn4cnn(C/C(=C/F)CN)c4=O)s3)cc21` [Example 150, 7-[5-({1-[(2E)-2-(aminomethyl)-3-fluoroprop-2-en-1-yl]-5-oxo-1,5-dihydro-4H-1,2,4-triazol-4-yl}methyl)thiophen-2-yl]-1-methyl-1H-pyrido[2,3-b][1,4]oxazin-2(3H)-one]: the IC50 was 0.8 nM at recombinant human VAP-1, more than 100000 nM in assay [1], 26000 nM in assay [2] and 190 nM in assay [3].

Turning to `CN1C(=O)COc2ccc(-c3ccc(Cn4cnn(C/C(=C/F)CN)c4=O)s3)cc21` [Example 96, 6-[5-(1-[(2E)-2-(aminomethyl)-3-fluoroprop-2-en-1-yl]-5-oxo-1,5-dihydro-4H-1,2,4-triazol-4-ylmethyl)thiophen-2-yl]-4-methyl-2H-1,4-benzoxazin-3(4H)-one hydrochloride], the 50% inhibitory concentration (IC50) at recombinant human VAP-1 came out at 0.8 nM; in assay [1], 87000 nM; in assay [2] it was 120 nM; in assay [3], 310 nM.

Consider `Cc1cc(-c2ccc3sc(Cn4cnn(C/C(=C/F)CN)c4=O)cc3c2)cc2c1NC(=O)CC2` [Example 210, 6-[2-({1-[(2E)-2-(aminomethyl)-3-fluoroprop-2-en-1-yl]-5-oxo-1,5-dihydro-4H-1,2,4-triazol-4-yl}methyl)-1-benzothiophen-5-yl]-8-methyl-3,4-dihydroquinolin-2(1H)-one], for which the IC50 is 1.7 nM at recombinant human VAP-1, more than 100000 nM in assay [1], 9200 nM in assay [2] and 590 nM in assay [3].
